Experimental data reported in PMC11729550, “Discovery of indole analogue Tc3 as a potent pyroptosis inducer and identification of its combination strategy against hepatic carcinoma” (Theranostics, 2025).
Where two headings read alike, the source gives them in different places.

Assays:
SK-Hep1 cells = test: Anti-tumor activity assay (IC50 value), cells counted after three days; settings: read-out: IC50 SK-Hep1
Experimental: (§1) For half maximal inhibitory concentrations (IC50) analysis, the hepatic carcinoma cells (HepG2, SK-Hep1 and PLC-PRF5) were seeded in 24-well plates respectively, then treated with drugs at concentration gradient for three days. The cells were counted with hemocytometer. […] A is the cell quantity of the control group and B is the cell quantity of the drug treated group. The cell inhibition rate was transformed using its logarithm. And the drug IC50 value were calculated by Graphpad Prsim 9 software with curve fitting of the drug concentration and log (cell inhibition rate).

HepG2 cells = test: as above; settings: for IC50: read-out: IC50 HepG2; for fold increase in cellular potency: HepG2, compared to T1;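 for all read-outs here: HepG2 cells exposed to a drug concentration series for 3 days, then counted with a hemocytometer, inhibition relative to untreated control cell number, IC50 obtained by curve fitting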
Experimental: as §1

HepG2 and SK-Hep1 cells = test: LDH release assay; format: cell-based, human; settings: 0-4 μM, three days
Experimental: The hepatic carcinoma cells were seeded in 96-well plates and treated with indole analogues for three days. Of note, the compounds were added into DMEM medium supplemented with 1% FBS. The cellular supernatant was collected for LDH release detection by using LDH cytotoxicity assay kit (Beyotime, C0016). Statistical analysis was combined with the cell viability data tested by WST-1 cell proliferation and cytotoxicity assay kit (Beyotime, C0035).

GSDME = test: Western blot of GSDME activation; format: cell-based, human; settings: HepG2 and SK-Hep1 cells
Experimental: The whole-cell protein was extracted by RIPA lysis buffer contained with protease and phosphatase inhibitor cocktail (MCE, HY-K0010) from cells treated by indole analogues. Proteins were separated by sodium dodecyl sulfate-polyacrylamide gel electrophoresis (SDS-PAGE) gel, and then blotted onto polyvinylidene difluoride membrane (Millipore, IPVH00010). The membranes were incubated with the primary antibodies and the following horseradish peroxidase-conjugated (HRP) secondary antibodies. Next, membranes were washed and developed by ECL regent (Millipore, WBKLS0500).

PLC-PRF5 cells = test: Anti-tumor activity assay (IC50 value), cells counted after three days; format: cell-based; settings: Homo sapiens, PLC-PRF-5, 72 h
Source text: The cells were counted with hemocytometer.

[1] = Liver microsome metabolic stability assay; settings: microsomes
Experimental: The reaction media contained liver microsomes (0.5 mg/mL), 1.0 mM β-nicotinamide adenine dinucleotide phosphate (β-NADPH), 3 mM MgCl2 phosphate buffer. Microsomal suspensions were pre-incubated with Tc3 for 3 min at 37℃. The reaction was initiated with the addition of β-NADPH and samples were collected at 0, 5, 15, 30 and 60 min. The negative control was excluded of β-NADPH. Midazolam was incubated similarly as a positive control substrate. At each time point, an aliquot was mixed acetonitrile. Samples were centrifuged and then supernatant was mixed with ultrapure water for LC-MS/MS analysis.

| Compound | IC50 (HepG2 cells; Homo sapiens, HepG2, 72 h) [µM] | also measured |
| --- | --- | --- |
| COc1cc2nccc(Oc3ccc(NC(=O)C4(C(=O)Nc5ccc(F)cc5)CC4)cc3)c2cc1OC [Cabozantinib, reference compound] | 2.64 ± 0.85 | IC50 (SK-Hep1 cells; Homo sapiens, SK-HEP1, 72 h): 2.26 ± 0.32 µM |
| NCCCn1cc(/C=C2\SC(=O)N(Cc3ccc(F)cc3)C2=O)c2ccccc21 [Compound T1] | 15.9 | – |
| Nc1ccn([C@@H]2O[C@H](CO)[C@@H](O)C2(F)F)c(=O)n1 [Gemcitabine, reference compound] | 0.14 ± 0.01 | IC50 (SK-Hep1 cells; Homo sapiens, SK-HEP1, 72 h): 0.04 ± 0.003 µM |
| COc1cc2nccc(Oc3ccc(NC(=O)NC4CC4)c(Cl)c3)c2cc1C(N)=O [Lenvatinib, reference compound] | 19.8 ± 1.43 | IC50 (SK-Hep1 cells; Homo sapiens, SK-HEP1, 72 h): 12.4 ± 1.32 µM |
| CNC(=O)c1cc(Oc2ccc(NC(=O)Nc3ccc(Cl)c(C(F)(F)F)c3)c(F)c2)ccn1 [Regorafenib, reference compound] | 4.21 ± 0.33 | IC50 (SK-Hep1 cells; Homo sapiens, SK-HEP1, 72 h): 4.23 ± 0.64 µM |
| CNC(=O)c1cc(Oc2ccc(NC(=O)Nc3ccc(Cl)c(C(F)(F)F)c3)cc2)ccn1 [Sorafenib, reference compound] | – | IC50 (SK-Hep1 cells; 72 h): 4.4 µM; IC50 (HepG2 cells; 72 h): 6.06 µM |
| O=C(NCCCn1cc(/C=C2\SC(=O)N(Cc3ccc(F)cc3)C2=O)c2ccccc21)C1CCCC1 [Ta1] | 27.7 | – |
| CC(C)C(=O)NCCCn1cc(/C=C2\SC(=O)N(Cc3ccc(F)cc3)C2=O)c2ccccc21 [Ta3] | > 50 | – |
| CC(C)CCC(=O)NCCCn1cc(/C=C2\SC(=O)N(Cc3ccc(F)cc3)C2=O)c2ccccc21 [Ta4] | > 100 | – |
| CCCCCCCC(=O)NCCCn1cc(/C=C2\SC(=O)N(Cc3ccc(F)cc3)C2=O)c2ccccc21 [Ta5] | > 100 | – |
| C[C@H](N)C(=O)NCCCn1cc(/C=C2\SC(=O)N(Cc3ccc(F)cc3)C2=O)c2ccccc21 [Tb1] | 7.97 ± 0.3 | – |
| CC(C)[C@H](N)C(=O)NCCCn1cc(/C=C2\SC(=O)N(Cc3ccc(F)cc3)C2=O)c2ccccc21 [Tb2] | 6.74 ± 0.8 | – |
| O=C(NCCCn1cc(/C=C2\SC(=O)N(Cc3ccc(F)cc3)C2=O)c2ccccc21)[C@@H]1CCCN1 [Tb3] | 6.2 | – |
| O=C(NCCCn1cc(/C=C2\SC(=O)N(Cc3ccc(F)cc3)C2=O)c2cc(Br)ccc21)[C@@H]1CCCN1 [Tb4] | 9.23 | – |
| N[C@@H](Cc1ccc(O)cc1)C(=O)NCCCn1cc(/C=C2\SC(=O)N(Cc3ccc(F)cc3)C2=O)c2cc(Br)ccc21 [Tb5] | 11.3 | – |
| CSCC[C@H](N)C(=O)NCCCn1cc(/C=C2\SC(=O)N(Cc3ccc(F)cc3)C2=O)c2cc(Br)ccc21 [Tb6] | 6.31 ± 0.35 | – |

| Compound | IC50 (HepG2 cells; Homo sapiens, HepG2, 72 h) [µM] | also measured |
| --- | --- | --- |
| CC[C@H](C)[C@H](N)C(=O)NCCCn1cc(/C=C2\SC(=O)N(Cc3ccc(F)cc3)C2=O)c2cc(Br)ccc21 [Tb7] | 1.79 | LDH release levels (HepG2 and SK-Hep1 cells): increased; GSDME activation / cleavage (western blotting) (GSDME): did not activate GSDME; IC50 (SK-Hep1 cells; Homo sapiens, SK-HEP1, 72 h): 2.21 ± 0.17 µM; fold increase in cellular potency (HepG2 cells): ~9 fold; IC50 (PLC-PRF5 cells): 1.26 ± 0.31 µM |
| COc1ccc2c(c1)c(/C=C1\SC(=O)N(Cc3ccc(F)cc3)C1=O)cn2CCCNC(=O)[C@@H](N)Cc1ccc(O)cc1 [Tb8] | 6.92 ± 1.21 | – |
| COc1ccc2c(c1)c(/C=C1\SC(=O)N(Cc3ccc(F)cc3)C1=O)cn2CCCNC(=O)[C@@H]1CCCN1 [Tb9] | 7.47 | – |
| NCCCn1cc(/C=C2\S/C(=N\c3ccc(N4CCOCC4)cc3)N(Cc3ccc(F)cc3)C2=O)c2ccccc21 [Tc1] | 5.13 | LDH release levels (HepG2 and SK-Hep1 cells): increased; GSDME activation / cleavage (western blotting) (GSDME): did not activate GSDME; IC50 (SK-Hep1 cells; Homo sapiens, SK-HEP1, 72 h): 2.87 ± 0.61 µM; fold increase in cellular potency (HepG2 cells): ~ 3 fold; IC50 (PLC-PRF5 cells): 2.71 ± 0.12 µM |
| CSCC[C@H](N)C(=O)NCCCn1cc(/C=C2\S/C(=N\c3ccc(N4CCOCC4)cc3)N(Cc3ccc(F)cc3)C2=O)c2ccccc21 [Tc2] | 8.77 | fold increase in cellular potency (HepG2 cells): ~2 fold |
| O=C(NCCCn1cc(/C=C2\S/C(=N\c3ccc(N4CCOCC4)cc3)N(Cc3ccc(F)cc3)C2=O)c2ccccc21)[C@@H]1CCCN1 [Tc4] | 2.46 | LDH release levels (HepG2 and SK-Hep1 cells): increased; GSDME activation / cleavage (western blotting) (GSDME): did not activate GSDME; IC50 (SK-Hep1 cells; Homo sapiens, SK-HEP1, 72 h): 2.3 ± 0.14 µM; fold increase in cellular potency (HepG2 cells): ~6.5 fold; IC50 (PLC-PRF5 cells): 2.92 ± 0.32 µM |
| CC[C@H](C)[C@H](N)C(=O)NCCCn1cc(/C=C2\S/C(=N\c3ccc(N4CCOCC4)cc3)N(Cc3ccc(F)cc3)C2=O)c2ccccc21 [Tc5] | 4.9 | fold increase in cellular potency (HepG2 cells): ~ 3 fold |
| CC(C)[C@H](N)C(=O)NCCCn1cc(/C=C2\S/C(=N\c3ccccc3)N(Cc3ccc(F)cc3)C2=O)c2ccccc21 [Tc6] | > 100 | – |
| CC(C)[C@H](N)C(=O)NCCCn1cc(/C=C2\S/C(=N\c3ccc(F)cc3)N(Cc3ccc(F)cc3)C2=O)c2ccccc21 [Tc7] | 12.4 | – |
| CC(C)[C@H](N)C(=O)NCCCn1cc(/C=C2\S/C(=N\c3ccc(Cl)cc3)N(Cc3ccc(F)cc3)C2=O)c2ccccc21 [Tc8] | 15.2 | – |
| CC(C)[C@H](N)C(=O)NCCCn1cc(/C=C2\S/C(=N\c3ccc(C(F)(F)F)cc3)N(Cc3ccc(F)cc3)C2=O)c2ccccc21 [Tc9] | 10.8 | – |
| COc1ccc(/N=C2\S/C(=C\c3cn(CCCNC(=O)[C@@H](N)C(C)C)c4ccccc34)C(=O)N2Cc2ccc(F)cc2)cc1 [Tc10] | > 100 | – |
| CC(C)[C@H](N)C(=O)NCCCn1cc(/C=C2\S/C(=N/C3CCCCC3)N(Cc3ccc(F)cc3)C2=O)c2ccccc21 [Tc11] | 20.9 | – |
| CCCC/N=C1\S/C(=C\c2cn(CCCNC(=O)[C@@H](N)C(C)C)c3ccccc23)C(=O)N1Cc1ccc(F)cc1 [Tc12] | 25 | – |
| Cc1ncc2n1-c1ccc(Cl)cc1C(c1ccccc1F)=NC2 [midazolam, reference compound] | – | microsomal CLint at 1 μM ([1]; human): 1200 µL/min/mg; half-life at 1 μM ([1]; mouse): 2.72 min; microsomal CLint at 1 μM ([1]; mouse): 1270 µL/min/mg |
